For 20 compounds, EC50 results are on record in patent publication US8563714B2, “Bridged spiro [2.4] heptane derivatives as ALX receptor and/or FPRL2 agonists” (Actelion Pharmaceuticals Ltd., priority 2009, dated 2013).

One assay concerns the target T1, human FPRL2 (Homo sapiens, UniProt P25089).
T1 construct: expressed in transfected cells; host or cells: HEK293 (HEK293-hFPRL2-Gα16)
T1 sequence (P25089 1-353): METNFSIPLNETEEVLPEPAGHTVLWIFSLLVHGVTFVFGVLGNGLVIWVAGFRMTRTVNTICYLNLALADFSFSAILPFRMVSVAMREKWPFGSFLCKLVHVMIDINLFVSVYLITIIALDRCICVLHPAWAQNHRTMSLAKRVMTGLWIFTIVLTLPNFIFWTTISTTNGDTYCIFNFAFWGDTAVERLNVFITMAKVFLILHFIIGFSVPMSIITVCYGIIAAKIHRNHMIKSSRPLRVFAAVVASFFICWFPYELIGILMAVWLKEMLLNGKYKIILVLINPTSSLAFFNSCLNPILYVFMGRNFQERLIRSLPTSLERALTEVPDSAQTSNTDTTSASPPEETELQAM
Description: Intracellular calcium measurements (FLIPR), agonistic activity in HEK293-hFPRL2-Gα16 cells. The settings on record: Fluo-4 calcium FLIPR, normalized to GLY14-Humanin 100 nM. The assay is classed as cell-based. Summed up: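 Peak values after baseline subtraction are expressed relative to 100 nM Gly14-Humanin; compounds diluted in assay buffer from 10 mM DMSO stocks.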
Background: Calcium flux is commonly read through the fluorescence of an indicator in the cells.

Another assay deals with T2, human ALX receptor (Homo sapiens, UniProt P25090).
T2 construct: expressed in transfected cells; host or cells: HEK293 (HEK293-hALXR-Gα16)
T2 sequence (P25090 1-351): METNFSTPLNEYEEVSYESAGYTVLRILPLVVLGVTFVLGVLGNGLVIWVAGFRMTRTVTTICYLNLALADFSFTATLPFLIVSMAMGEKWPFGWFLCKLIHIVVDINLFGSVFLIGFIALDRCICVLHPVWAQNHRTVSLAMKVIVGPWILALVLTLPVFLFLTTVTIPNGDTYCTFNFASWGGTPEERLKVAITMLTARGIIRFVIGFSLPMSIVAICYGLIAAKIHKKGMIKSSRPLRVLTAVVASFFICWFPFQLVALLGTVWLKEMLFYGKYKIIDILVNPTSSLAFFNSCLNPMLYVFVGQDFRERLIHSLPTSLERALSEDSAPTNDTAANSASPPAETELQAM
Description: Intracellular calcium measurements (FLIPR), agonistic activity in HEK293-hALXR-Gα16 cells. The assay is classed as cell-based. The following applies: Fluo-4 calcium FLIPR, normalized to WKYMVm 10 nM. The essentials: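 HEK293 cells expressing hALXR and Gα16 were loaded with 1 μM Fluo-4 AM and 20 mM HEPES for 60 min at 37°C, then exposed to serially diluted compound. FLIPR fluorescence was read at ex 488/em 540 nm. Baseline-subtracted peak responses were normalized to 10 nM WKYMVm.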

pEC50: −log10 of the molar value. Where only a bound is given, the exact number is not on record here.

In the case of `CC(C)C(=O)NC[C@H]1[C@H](C(=O)Nc2ccc(Br)cc2)[C@@H]2C=C[C@H]1C21CC1` (racemic) [Example 172, (5R*)—N^5-(4-Bromo-phenyl)-(6R*)-6-[(isobutyrylamino)-methyl]-(4S*,7R*)-[4,7-ethenylene-spiro[2.4]heptane]-5-carboxamide], the pEC50 on human FPRL2 is 5.34; at human ALX receptor, 6.90.
For the compound `CCCCCCNC(=O)[C@H]1[C@H](C(=O)Nc2ccc(Br)cc2)[C@@H]2C=C[C@H]1C21CC1` (racemic) [Example 75, (5R*)—N^5-(4-Bromophenyl)-(6R*)—N^6-(hexyl)-(4S*,7R*)-[4,7-ethenylene-spiro[2.4]heptane]-5,6-dicarboxamide], the pEC50 is 5.10 on human FPRL2 and 7.14 on human ALX receptor.
The matching figures for `CC(C)(CO)NC(=O)[C@H]1[C@H](C(=O)Nc2ncc(Br)s2)[C@@H]2CC[C@H]1C21CC1` [Example 406, (5R)—N^5-(5-Bromothiazol-2-yl)-(6R)—N^6-(2-methyl-3-hydroxyprop-2-yl)-(4S,7R)-[4,7-ethylene-spiro[2.4]heptane]-5,6-dicarboxamide]: 4.82 and 6.48.
The matching figures for `Cc1nc(CCNC(=O)[C@H]2[C@H](C(=O)Nc3ccc(Br)cc3)[C@H]3C=C[C@@H]2C32CC2)[nH]c1C` (relative stereo) [Example 199, (5R*)—N^5-(2-(4,5-Dimethyl-1H-imidazol-2-yl)-ethyl)-(6R*)—N^6-(4-bromophenyl)-(4S*,7R*)-[4,7-ethenylene-spiro[2.4]heptane]-5,6-dicarboxamide]: 8.13 and 7.11.
For `COCCCNC(=O)[C@H]1[C@H](C(=O)Nc2ccc(Br)cc2)[C@@H]2C=C[C@H]1C21CC1` (racemic) [Example 53, (5R*)—N^5-(4-Bromophenyl)-(6R*)—N^6-(3-methoxy-propyl)-(4S*,7R*)-[4,7-ethenylene-spiro[2.4]heptane]-5,6-dicarboxamide] the same measures were 5.30 and 7.80.
As for `O=C(NCCCCN1CCCC1)C1C(C(=O)NCCCn2ccnc2)C2C=CC1C21CC1` (stereo not drawn) [Example 141, (5R*)—N^5-(3-(1H-Imidazol-1-yl)-propyl)-(6R*)—N^6-(4-pyrrolidin-1-yl-butyl)-(4S*,7R*)-[4,7-ethenylene-spiro[2.4]heptane]-5,6-dicarboxamide], the figures for the pEC50 at human FPRL2 and at human ALX receptor were 5.80 and 6.08, respectively.
The matching figures for `NCCCCCNC(=O)[C@H]1[C@H](C(=O)NCc2ccc(Br)cc2F)[C@@H]2CC[C@H]1C21CC1` [Example 326, (5R)—N^5-(4-Bromo-2-fluorophenyl-methyl)-(6R)—N^6-(5-amino-pentyl)-(4S,7R)-[4,7-ethylene-spiro[2.4]heptane]-5,6-dicarboxamide]: 6.03 and 7.66.
As to `CN1CCN(CCCCNC(=O)[C@H]2[C@H](C(=O)Nc3ccc(Br)cc3)[C@@H]3C=C[C@H]2C32CC2)CC1` [Example 213, (5R)—N^5-(4-Bromophenyl)-(6R)—N^6-(4-(4-methyl-piperazin-1-yl)butyl)-(4S,7R)-[4,7-ethenylene-spiro[2.4]heptane]-5,6-dicarboxamide], the pEC50 on human FPRL2 is 7.80; at human ALX receptor, 8.39.
As to `CC(=O)c1csc(CNC(=O)[C@H]2[C@H](C(=O)NCC3CCNCC3)[C@H]3C=C[C@@H]2C32CC2)n1` (racemic) [Example 300, (5R*)—N^5-(4-Acetyl-thiazol-2-yl-methyl)-(6R*)—N^6-(piperidin-4-yl-methyl)-(4S*,7R*)-[4,7-ethenylene-spiro[2.4]heptane]-5,6-dicarboxamide], the pEC50 on human FPRL2 is 5.74; at human ALX receptor it was 6.42.
For `COCC1CCCN1CCCCNC(=O)[C@H]1[C@H](C(=O)Nc2ccc(Br)cc2)[C@@H]2C=C[C@H]1C21CC1` (stereo partly drawn) [Example 400, (5R)—N^5-(4-Bromophenyl)-(6R)—N^6-(4-(2-(methoxymethyl)pyrrolidin-1-yl)butyl)-(4S,7R)-[4,7-ethenylene-spiro[2.4]heptane]-5,6-dicarboxamide] the same measures were 5.12 and 8.85.
For the compound `NC(=O)C(Cc1ccccc1)NC(=O)C1C(C(=O)Nc2ccc(Br)cc2)C2C=CC1C21CC1` (mixture of isomers) [Example 95, (5R*)—N^5-(4-Bromophenyl)-(6R*)—N^6-[(1S)-1-carbamoyl-2-phenyl-ethyl]-(4S*,7R*)-[4,7-ethenylene-spiro[2.4]heptane]-5,6-dicarboxamide], the pEC50 on human FPRL2 was 5.73; at human ALX receptor, 6.65.
For `CC(=O)c1nc(CNC(=O)[C@H]2[C@H](C(=O)NCCCCN3CCCC3)[C@H]3C=C[C@@H]2C32CC2)cs1` (racemic) [Example 348, (5R*)—N^5-[(2-Acetyl-thiazol-4-yl)methyl]-(6R*)—N^6-(4-pyrrolidino-butyl)-(4S*,7R*)-[4,7-ethenylene-spiro[2.4]heptane]-5,6-dicarboxamide] the same measures were 6.66 and 5.49.
The matching figures for `CCN(CC)CCNC(=O)[C@H]1[C@H](C(=O)Nc2ccc(Br)cc2)[C@@H]2C=C[C@H]1C21CC1` (racemic) [Example 66, (5R*)—N^5-(4-Bromophenyl)-(6R*)—N^6-(2-diethyl-amino-ethyl)-(4S*,7R*)-[4,7-ethenylene-spiro[2.4]heptane]-5,6-dicarboxamide]: 5.65 and 7.47.
For the compound `CC(C)(C)OC(=O)NCc1cccc(CNC(=O)[C@H]2[C@H](C(=O)Nc3ccc(Br)cc3)[C@@H]3C=C[C@H]2C32CC2)c1` (racemic) [Example 90, (5R*)—N^5-(4-Bromophenyl)-(6R*)—N^6-{[(3-N-tert-butoxycarbonyl-aminomethyl)-phenyl]-methyl}-(4S*,7R*)-[4,7-ethenylene-spiro[2.4]heptane]-5,6-dicarboxamide], the pEC50 on human FPRL2 is 5.65; on human ALX receptor, 6.71.
As to `O=C(NCCCN1CCCC1)[C@H]1[C@H](C(=O)Nc2ccc(Br)cc2)[C@@H]2CC[C@H]1C21CC1` (racemic) [Example 110, (5R*)—N^5-(4-Bromophenyl)-(6R*)—N^6-(3-pyrrolidin-1-yl-propyl)-(4S*,7R*)-[4,7-ethylene-spiro[2.4]heptane]-5,6-dicarboxamide], the pEC50 was 6.51 at human FPRL2 and 7.80 at human ALX receptor.
On to `Cc1cc(C(=O)N(C)C[C@H]2[C@H](C(=O)Nc3ccc(Br)cc3)[C@@H]3C=C[C@H]2C32CC2)nn1C` (racemic) [Example 183, (5R*)—N^5-(4-Bromo-phenyl)-(6R*)-6-{[N-(1,5-dimethyl-1H-pyrazole-3-carbonyl)-N-methyl-amino]-methyl}-(4S*,7R*)-[4,7-ethenylene-spiro[2.4]heptane]-5-carboxamide], for which the pEC50 was 5.05 on human FPRL2 and 6.52 on human ALX receptor.
The matching figures for `O=C(NCCF)[C@H]1[C@H](C(=O)Nc2ncc(Br)s2)[C@@H]2C=C[C@H]1C21CC1` (racemic) [Example 259, (5R*)—N^5-(5-Bromo-thiazol-2-yl)-(6R*)—N^6-(2-fluoro-ethyl)-(4S*,7R*)-[4,7-ethenylene-spiro[2.4]heptane]-5,6-dicarboxamide]: below 4.60 and 6.45.
In the case of `NCCCCCNC(=O)[C@H]1[C@H](C(=O)Nc2ccc(Br)cc2)[C@H]2C=C[C@@H]1C21CC1` (relative stereo) [Example 340, (5R*)—N^5-(5-Aminopentyl)-(6R*)—N^6-(4-bromophenyl)-(4S*,7R*)-[4,7-ethenylene-spiro[2.4]heptane]-5,6-dicarboxamide], the results for the pEC50 at human FPRL2 and at human ALX receptor were 6.59 and 7.52, respectively.
For `O=C(NCCCO)[C@H]1[C@H](C(=O)Nc2ncc(Br)s2)[C@@H]2CC[C@H]1C21CC1` [Example 404, (5R)—N^5-(5-Bromothiazol-2-yl)-(6R)—N^6-(3-hydroxypropyl)-(4S,7R)-[4,7-ethylene-spiro[2.4]heptane]-5,6-dicarboxamide] the same measures were 5.00 and 7.02.
In the case of `O=C(NCCCCN1CCCC1)[C@H]1[C@H](C(=O)Nc2ncc([N+](=O)[O-])s2)[C@@H]2C=C[C@H]1C21CC1` (racemic) [Example 128, (5R*)—N^5-(5-Nitro-thiazol-2-yl)-(6R*)—N^6-(4-pyrrolidin-1-yl-butyl)-(4S*,7R*)-[4,7-ethenylene-spiro[2.4]heptane]-5,6-dicarboxamide], the pEC50 on human FPRL2 was 5.46; at human ALX receptor, 6.92.

Usually pEC50 stands for the EC50 on a negative log10 scale, so that one unit is a factor of ten.
